Laboratory results published in patent publication US10434100B2, “Protein phosphatase 2A inhibitors for treating myelodysplastic syndromes” (priority 2014, dated 2019).

Legend:
protein phosphatase 2A = protein phosphatase 2A (Homo sapiens, UniProt P67775); conditions: cited from earlier work
Namalwa cells [1] = assay: Apoptosis in cell lines (Namalwa), flow cytometry; type: cell-based; conditions: 10 μM, dissolved in MSG
Protocol: FIG. 3 is a bar graph showing percentage of Namalwa cells undergoing apoptosis after treatment with 0.1 μM, 1.0 μM or 10 μM LB-100 dissolved in DMSO (grey) or MSG (black) compared to control and vehicle.
FIGS. 4A to 4D are a series of flow cytometry plots showing percentage of Namalwa cells undergoing apoptosis after treatment with control (FIG. 4A), 0.1 μM (FIG. 4B), 1.0 μM (FIG. 4C), or 10 μM (FIG. 4D) LB-100.

non-del(5q) MDS = assay: Additional studies of LB-100 efficacy in non-del(5q) MDS; type: in vivo
Protocol: (§1) Additional studies, similar to the aforementioned Phase I design, are conducted to evaluate the efficacy of LB-100, alone or in combination with lenalidomide, in patients with del(5q) MDS or non-del(5q) MDS.
An amount of LB-100 is administered to a subject afflicted with non-del(5q) MDS. […] An amount of LB-100 in combination with lenalidomide is administered to a subject afflicted with non-del(5q) MDS.

Namalwa cells [2] = assay: MTT assay, proliferation of Namalwa cells; type: cell-based; conditions: 72 hours, versus control (FIGS. 7B and 7C)
Protocol: (§2) FIG. 7A is a graph showing proliferation of HL60 cells 72 hours after treatment with 0.001 μM, 0.01 μM, 0.1 μM, 1.0 μM, 10 μM, or 100 μM LB-100 (grey) or 0.001 μM, 0.01 μM, 0.1 μM, 1.0 μM, 10 μM, or 100 μM lenalidomide (black), compared to control or vehicle. FIGS. 7B to 7C are graphs showing proliferation of Namalwa cells 72 hours after treatment with 0.001 μM, 0.01 μM, 0.1 μM, 1.0 μM, 10 μM, or 100 μM LB-100 (♦), 0.001 μM, 0.01 μM, 0.1 μM, 1.0 μM, 10 μM, or 100 μM lenalidomide (▪), or 0.001 μM, 0.01 μM, 0.1 μM, 1.0 μM, 10 μM, or 100 μM, cantharidin (▴), compared to control or vehicle.
(§3) HL60 cells and U937 cells were compared (FIGS. 8A and 8B).

del(5q) patient BM MNCs = assay: Apoptosis in patient cells, del(5q); type: cell-based
Protocol: FIG. 6 is a bar graph showing percentage of primary BM MNCs from a Del(5q) patient undergoing apoptosis after treatment with 0.1 μM, 1.0 μM, or 10 μM lenalidomide (grey) or 0.1 μM, 1.0 μM, or 10 μM LB-100 (black), compared to a control.

[3] = system: Non-del(5q) patient BM MNCs; assay: Apoptosis in patient cells, non-del(5q); type: cell-based; conditions: FIG. 5
HL60 cells = assay: MTT assay, proliferation of HL60 cells; type: cell-based; conditions: 72 hours, versus lenalidomide, significant difference at 1 μM (FIG. 7A)
Protocol: as §2, §3

Namalwa cells [4] = assay: Cell cycle analysis of Namalwa cells treated with LB-100; type: cell-based
Protocol: FIG. 1 is a bar graph showing percent of Namalwa cells in G1 arrest 24 hours after treatment with 0.1 μM, 1.0 μM or 10 μM LB-100 dissolved in DMSO (grey) or MSG (black) compared to control and vehicle.
FIG. 2 is a bar graph showing percent of Namalwa cells in G1 arrest 24 hours after treatment with 0.1 μM, 1.0 μM or 10 μM LB-100 compared to control.
Namalwa cells were treated with LB-100 dissolved in DMSO or MSG.

del(5q) MDS [5] = assay: Additional studies of LB-100 efficacy in del(5q) MDS; type: in vivo
Protocol: as §1
An amount of LB-100 is administered to a subject afflicted with del(5q) MDS. […] An amount of LB-100 in combination with lenalidomide is administered to a subject afflicted with del(5q) MDS.

[6] = system: MDS that is resistant to lenalidomide; assay: Additional studies of LB-100 efficacy in lenalidomide-resistant MDS; type: in vivo; conditions: LB-100 or LB-100 in combination with lenalidomide
Protocol: as §1

non-del (5q) MDS = conditions: cited from earlier work
del(5q) MDS [7] = conditions: cited from earlier work
[8] = LB-100 in combination with lenalidomide

Chain of protein phosphatase 2A (P67775 whole entry): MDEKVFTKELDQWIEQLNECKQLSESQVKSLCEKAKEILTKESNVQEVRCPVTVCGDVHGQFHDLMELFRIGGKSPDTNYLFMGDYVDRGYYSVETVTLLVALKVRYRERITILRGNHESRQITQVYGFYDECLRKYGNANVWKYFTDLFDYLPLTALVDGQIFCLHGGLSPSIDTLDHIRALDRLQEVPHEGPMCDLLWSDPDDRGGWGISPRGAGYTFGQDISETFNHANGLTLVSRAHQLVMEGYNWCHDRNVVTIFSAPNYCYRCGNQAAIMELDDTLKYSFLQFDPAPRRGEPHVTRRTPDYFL

C=C1[C@@H](O)[C@@H]2O[C@]3(CC[C@H](/C=C/[C@@H](C)[C@@H]4CC(C)=C[C@@]5(O[C@H](C[C@@](C)(O)C(=O)O)CC[C@H]5O)O4)O3)CC[C@H]2O[C@@H]1[C@@H](O)C[C@H](C)[C@H]1O[C@@]2(CCCCO2)CC[C@H]1C [Okadaic acid, 9,10-Deepithio-9,10-didehydroacanthifolicin]
Selectivity over PP2B, PP2C and other phosphatases (in words) (protein phosphatase 2A): highly selective over PP2B, PP2C and a range of other phosphatases

CN1CCN(C(=O)C2C(C(=O)O)[C@H]3CC[C@@H]2O3)CC1 (stereo partly drawn) [LB100]
Apoptosis (in words) (Namalwa cells [1]): led to apoptosis at 10 μM | Efficacy (in words) (non-del(5q) MDS; LB-100 alone): effective to treat the non-del(5q) MDS | Efficacy (in words) (non-del(5q) MDS; [8]): effective to treat the non-del(5q) MDS | Proliferation (in words) (Namalwa cells [2]): significant decrease in proliferation in comparison to control | Apoptosis (in words) (del(5q) patient BM MNCs; 1 μM): mild increase in apoptosis | Cytotoxicity compared with lenalidomide (in words) (del(5q) patient BM MNCs; 10 μM): more cytotoxic than lenalidomide | Apoptosis (in words) (del(5q) patient BM MNCs; 0.1, 1.0, 10 μM (FIG. 6)): induced apoptosis in a dose dependent fashion | Apoptosis (in words) [3]: did not lead to apoptosis | Proliferation (in words) (HL60 cells): significant decreased proliferation in comparison to treatment with lenalidomide | G1 arrest, dose dependence (in words) (Namalwa cells [4]; Table 2, FIG. 2): led to G1 arrest in a dose-dependent fashion | G1 arrest (in words) (Namalwa cells [4]; dissolved in DMSO or MSG (Table 1, FIG. 1)): led to G1 arrest at 1 and 10 μM in MSG and at 10 μM in DMSO | Efficacy (in words) (del(5q) MDS [5]; LB-100 alone): effective to treat the del(5q) MDS | Efficacy (in words) (del(5q) MDS [5]; [8]): effective to treat the del(5q) MDS | Efficacy (in words) [6]: effective to treat the MDS

Nc1cccc2c1CN(C1CCC(=O)NC1=O)C2=O (stereo not drawn) [Lenalidomide, lenalidomide]
transfusion independence (TI), share of patients (non-del (5q) MDS): 26% | transfusion independence (TI), share of patients (del(5q) MDS [7]; lower risk MDS patients with del(5q)): 67% | median duration of response (del(5q) MDS [7]; patients with del5q MDS): 2.5 years
